In paper PMC8868586, “Comparison of Various Solvent Extracts and Major Bioactive Components from Unsalt-Fried and Salt-Fried Rhizomes of Anemarrhena asphodeloides for Antioxidant, Anti-α-Glucosidase, and Anti-Acetylcholinesterase Activities” (Antioxidants, 2022):
Read-outs that look alike come from different tables or passages of the source.

Key:
[1] = DPPH radical scavenging assay
Method: The DPPH radical scavenging assay was measured by the reference method.
(§1) ABTS and DPPH assays have been widely utilized to assess the antioxidant activities of natural components. Both assays are mostly connected with the proton radical scavenging or hydrogen donating capacities of the target compounds [29]. Superoxide radical scavenging activity is measured by the PMS/NADH–NBT system. Superoxide anion radicals generated from dissolved oxygen by PMS/NADH coupling reaction reduce NBT. The decrease in absorbance at 560 nm with antioxidants indicates a reduction in superoxide anion radicals in the reaction mixture. The ferric-reducing antioxidant power (FRAP) measures the antioxidant potential of each extract through the reduction of ferric iron (Fe^3+) complex to ferrous iron (Fe^2+) complex by antioxidants present in the samples [31].

[2] = ABTS radical scavenging assay
Method: ABTS radical scavenging activity of each extract was determined as previously described.
as §1

[3] = Superoxide radical scavenging assay (PMS/NADH-NBT system); conditions: isolated components
Method: Superoxide anion radical (O2^•–) scavenging activity was measured using the previously described method.
as §1

[4] = Ferric-reducing antioxidant power (FRAP) assay
Method: The FRAP assay was determined by the reference method with a slight modification. The working solution was mixed with acetate buffer (pH 3.6), ferric chloride solution (20 mM), and TPTZ solution (10 mM TPTZ in 40 mM HCl) in a proportion of 10:1:1, respectively, and freshly prepared before being used. A total of 900 μL of the working solution was warmed to 37 °C and then mixed with 100 μL of the diluted sample, blank or standard, in a microcentrifuge tube. The tubes were vortexed in a dry bath at 37 °C for 40 min. The absorbance was measured at 593 nm. The standard curve was linear between 0 and 100 mM Trolox. Results are expressed in mM TE/g dry weight. Additional dilution was needed if the FRAP value measured was over the linear range of the standard curve.
as §1

[5] = molecular target: T1, α-glucosidase (Saccharomyces cerevisiae, UniProt P53341); assay: α-Glucosidase inhibitory activity assay; format: biochemical
T1 construct: purchased Sigma-Aldrich
Method: The inhibition assay of α-glucosidase was conducted using the procedure previously reported.

[6] = molecular target: T2, acetylcholinesterase (AChE) (Homo sapiens, UniProt P22303); assay: biochemical; conditions: pure compounds; read-out: AchE Inhibitory Assay IC50 (converted)
T2 construct: purchased Sigma-Aldrich
Method: The inhibition assay of acetylcholinesterase was conducted using the conditions previously reported with slight modifications. Briefly, 0.1 M sodium phosphate buffer (pH 8.0, 140 μL), test compound solution (20 μL), enzyme solution (15 μL of AChE 0.2 units/mL solution), and DTNB (15 mM, 10 μL) were mixed and incubated for 10 min at room temperature. Substrate (10 μL of AchI 15 mM solution) was then added and the reaction was initiated.

[7] = Trolox equivalents per gram, isolated components
[8] = pure compounds, read-out: α-Glucosidase IC50 (converted)
[9] = solvent extracts of AA (non-salt-fried) series
[10] = solvent extracts of salt-fried AA series

T2 sequence (P22303 32-614): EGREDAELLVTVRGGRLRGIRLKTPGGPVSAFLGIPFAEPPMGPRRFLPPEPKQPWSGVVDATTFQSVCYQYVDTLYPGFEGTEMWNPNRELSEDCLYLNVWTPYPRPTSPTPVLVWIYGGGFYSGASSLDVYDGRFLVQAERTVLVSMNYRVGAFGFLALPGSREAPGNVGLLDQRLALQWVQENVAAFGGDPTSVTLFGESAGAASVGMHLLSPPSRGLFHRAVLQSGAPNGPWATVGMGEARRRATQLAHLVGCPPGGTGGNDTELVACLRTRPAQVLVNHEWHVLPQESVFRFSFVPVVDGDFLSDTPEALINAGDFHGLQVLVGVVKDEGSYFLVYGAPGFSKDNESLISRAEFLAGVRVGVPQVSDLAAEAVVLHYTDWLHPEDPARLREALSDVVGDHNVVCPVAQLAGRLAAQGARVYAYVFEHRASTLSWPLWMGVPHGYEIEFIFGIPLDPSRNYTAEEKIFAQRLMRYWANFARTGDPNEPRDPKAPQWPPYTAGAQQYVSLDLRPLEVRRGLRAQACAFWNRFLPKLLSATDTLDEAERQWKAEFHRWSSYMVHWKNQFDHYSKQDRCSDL
T1 sequence (P53341 whole entry): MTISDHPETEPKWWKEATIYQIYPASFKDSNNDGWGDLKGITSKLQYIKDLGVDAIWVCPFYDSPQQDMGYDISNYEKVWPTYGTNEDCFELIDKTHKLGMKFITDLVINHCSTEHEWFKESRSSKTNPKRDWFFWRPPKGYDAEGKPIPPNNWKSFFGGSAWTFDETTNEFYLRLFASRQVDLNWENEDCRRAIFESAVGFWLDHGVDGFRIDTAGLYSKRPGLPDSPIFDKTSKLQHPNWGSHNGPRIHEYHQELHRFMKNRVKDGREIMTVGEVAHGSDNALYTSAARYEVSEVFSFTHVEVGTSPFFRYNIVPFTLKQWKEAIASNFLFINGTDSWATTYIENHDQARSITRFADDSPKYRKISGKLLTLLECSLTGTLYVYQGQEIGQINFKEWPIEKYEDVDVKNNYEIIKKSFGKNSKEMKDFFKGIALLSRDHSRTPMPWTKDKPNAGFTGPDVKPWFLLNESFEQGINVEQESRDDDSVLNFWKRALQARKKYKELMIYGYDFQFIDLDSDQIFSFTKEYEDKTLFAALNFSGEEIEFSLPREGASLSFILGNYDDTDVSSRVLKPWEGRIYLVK

| Structure (SMILES) | DPPH IC50 ([1]; isolated components) [µg/mL] | ABTS IC50 ([2]; isolated components) [µg/mL] | Superoxide IC50 [3] [µg/mL] | FRAP (TE) [4, 7] [mM/g] | IC50 [5, 8] [µM] | IC50 [6] [µM] | IC50 [5] [µM] | DPPH IC50 [1, 9] [µg/mL] | DPPH IC50 [1, 10] [µg/mL] | ABTS IC50 [2, 9] [µg/mL] | ABTS IC50 [2, 10] [µg/mL] | FRAP (TE) ([4]; Trolox equivalents per gram of extract, AA (non-salt-fried) series) [mM/g] | FRAP (TE) ([4]; Trolox equivalents per gram of extract, salt-fried AA series) [mM/g] | potency against α-glucosidase relative to acarbose ([5]; fold stronger than acarbose) |
| --- | --- | --- | --- | --- | --- | --- | --- | --- | --- | --- | --- | --- | --- | --- |
| C[C@H]1CC[C@@]2(OC1)O[C@H]1C[C@H]3[C@@H]4CC[C@@H]5C[C@@H](O[C@@H]6O[C@H](CO)[C@H](O)[C@H](O)[C@H]6O[C@@H]6O[C@H](CO)[C@@H](O)[C@H](O)[C@H]6O)CC[C@]5(C)[C@H]4CC[C@]3(C)[C@H]1[C@@H]2C [Timosaponin A-III, timosaponin A-III] | >200 | >200 | >200 | 19.5 ± 3.9 | 97.9 | 179 |  |  |  |  |  |  |  |  |
| O=c1c2cc(O)c(O)cc2oc2c([C@@H]3O[C@H](CO)[C@@H](O)[C@H](O)[C@H]3O)c(O)cc(O)c12 [Isomangiferin, isomangiferin] | 16.7 ± 1.1 | 5.6 ± 0.4 | 155.3 ± 13.8 | 6359.9 ± 176.8 |  | 227 | 434 |  |  |  |  |  |  |  |
| Cc1cc(C(C)(C)C)c(O)c(C(C)(C)C)c1 [BHT, Butylated hydroxytoluene, reference compound] | 27.2 ± 1.9 | 15.4 ± 0.9 |  | 3963.9 ± 104.0 |  |  |  | 35.5 ± 0.6 | 39.7 ± 1.4 | 20.6 ± 0.2 | 19.6 ± 0.4 | 4297.0 ± 48.4 | 4216.1 ± 66.5 |  |
| O=c1c2cc(O[C@@H]3O[C@H](CO)[C@@H](O)[C@H](O)[C@H]3O)c(O)cc2oc2cc(O)c([C@@H]3O[C@H](CO)[C@@H](O)[C@H](O)[C@H]3O)c(O)c12 [Neomangiferin, neomangiferin] | >200 | 81.9 ± 4.6 | >200 | 83.1 ± 5.3 |  | 121 | > 684 |  |  |  |  |  |  |  |
| O=c1c2cc(O)c(O)cc2oc2cc(O)c([C@@H]3O[C@H](CO)[C@@H](O)[C@H](O)[C@H]3O)c(O)c12 [Mangiferin, mangiferin] | 5.4 ± 0.3 | 3.7 ± 0.2 | 53.8 ± 2.4 | 9371.4 ± 183.9 | 146 | 161 |  |  |  |  |  |  |  | about five-fold |
